Source: ChEMBL document CHEMBL1201862, “PubChem BioAssay data set” (2004)
The source made the active and inactive calls.

Assays:
[1] = test system: Streptococcus sp. 'group A'; test: growth inhibition of control SK(-) GAS strain, dose response, counter-screen for streptokinase expression inhibitor project, luminescence, kanamycin, BacTiterGlo, confirmation (AID 1900); type: functional, organism-based
[2] = biological target: T1, Sphingosine 1-phosphate receptor 2 (Homo sapiens, UniProt O95136); test: Dose Response Cell Based Assay for Agonists of the S1P2 Receptor. [Related pubchem assays: 729, 736, 843 ]; type: functional
Vero = Vero cell cytotoxicity, cytotoxicity control for flavivirus capping enzyme inhibitors (AID 588742); type: functional; conditions: Chlorocebus sabaeus
Streptococcus = test: Group A Streptococcus viability loss, dose response, counter-screen for streptokinase expression inhibitor project, luminescence, BacTiterGlo (AID 1915); type: functional, organism-based;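 also: potency for reduction of bacterial viability or growth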
Streptokinase A = biological target: T2, Streptokinase A (Streptococcus pyogenes serotype M1, UniProt P10520); test: S. pyogenes streptokinase expression inhibitors, potency, dose response, plasminogen activation absorbance, OD405 (AID 1914); type: functional, Streptococcus pyogenes M1 GAS;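 also: secreted streptokinase activity via plasminogen activation per viability signal from cell pellet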
T2 sequence (P10520 whole entry): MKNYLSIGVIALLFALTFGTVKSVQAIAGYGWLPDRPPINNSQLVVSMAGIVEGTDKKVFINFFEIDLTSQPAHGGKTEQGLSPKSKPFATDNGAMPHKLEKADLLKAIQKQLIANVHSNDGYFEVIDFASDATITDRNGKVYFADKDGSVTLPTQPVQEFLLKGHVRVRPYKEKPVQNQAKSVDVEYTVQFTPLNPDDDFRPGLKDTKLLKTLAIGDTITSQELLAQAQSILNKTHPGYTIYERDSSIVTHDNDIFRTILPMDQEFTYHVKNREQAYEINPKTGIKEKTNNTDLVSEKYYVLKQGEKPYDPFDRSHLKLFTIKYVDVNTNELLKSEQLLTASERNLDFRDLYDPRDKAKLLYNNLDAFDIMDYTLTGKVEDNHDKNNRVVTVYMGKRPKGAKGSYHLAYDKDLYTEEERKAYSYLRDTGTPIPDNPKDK

[3] = Luminescence Cell-Based Dose Retest to Confirm Inhibitors of Cancer Stem Cells. [Related pubchem assays (depositor defined):AID2717, AID2721]; type: functional; conditions: Homo sapiens
Cytochrome P450 2C19 = Cytochrome P450 2C19 (Homo sapiens, UniProt P33261); test: qHTS Assay for Inhibitors and Substrates of Cytochrome P450 2C19. [Related pubchem assays: 410 ]; type: ADME; conditions: read-out: Potency
Cytochrome P450 3A4 = Cytochrome P450 3A4 (Homo sapiens, UniProt P08684); conditions: Potency;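 also: confirmatory qHTS run detecting inhibitors and substrates of CYP3A4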
[4] = biological target: Glucose-6-phosphate 1-dehydrogenase (Homo sapiens, UniProt P11413); test: human G6PD enzyme inhibitors, dose response, selectivity assay for P. falciparum G6PD inhibitor project, biochemical, fluorescence (AID 504792); type: functional
[5] = cytotoxicity in HPDE-C7 cells, cell-based, fluorescence, HTS (AID 430); type: functional; conditions: Homo sapiens
[6] = biological target: T1, Sphingosine 1-phosphate receptor 2; test: Dose Response Cell Based Assay for Antagonists of the S1P2 Receptor. [Related pubchem assays: 856, 736 ]; type: functional
[7] = cytotoxicity in KRAS-transformed pancreatic duct cells, primary screen, cell-based, fluorescence, HTS (AID 431); type: functional; conditions: Homo sapiens;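 also: cell line used: HPDE-C7K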
Genome polyprotein = Genome polyprotein (dengue virus type 2, UniProt P29990); test: Dengue-2 NS5 methyltransferase inhibitors, primary screen, biochemical, confirmation dose response (AID 588689); type: functional
[8] = biological target: Mitogen-activated protein kinase 10 (Homo sapiens, UniProt P53779); test: Dose response biochemical screening assay for inhibitors of c-Jun N-Terminal Kinase 3 (JNK3). [Related pubchem assays: 746 ]
[9] = inhibitors of PGC1a acetylation in cells, dose response, cell-based, cherry-picked samples (AID 720514); type: functional;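 also: potency may reflect raised or lowered acetylation signal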
[10] = M. tuberculosis growth inhibition, HTS (AID 449762); type: functional
[11] = biological target: T3, Carboxy-terminal domain RNA polymerase II polypeptide A small phosphatase 1 (Homo sapiens, UniProt Q9GZU7); test: inhibitors of CTDSP1, concentration-response testing, biochemical assay, absorbance-based, actives from ultra-high-throughput screening (AID 540297); type: functional
T3 sequence (Q9GZU7 whole entry): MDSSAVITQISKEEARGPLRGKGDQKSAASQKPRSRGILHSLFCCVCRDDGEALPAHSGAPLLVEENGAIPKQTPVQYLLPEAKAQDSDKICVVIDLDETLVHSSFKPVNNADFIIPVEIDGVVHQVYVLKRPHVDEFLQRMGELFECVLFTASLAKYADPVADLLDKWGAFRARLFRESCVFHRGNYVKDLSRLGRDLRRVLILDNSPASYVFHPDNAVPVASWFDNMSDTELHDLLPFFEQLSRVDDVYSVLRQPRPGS

[12] = biological target: Protein-tyrosine kinase 2-beta (Homo sapiens, UniProt Q14289);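 also: potency of inhibitors of PYK2 kinase phosphorylation of poly-GT substrate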
[13] = biological target: Arf-GAP with SH3 domain, ANK repeat and PH domain-containing protein 1 (Homo sapiens, UniProt Q9ULH1); type: functional;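 also: biochemical fluorescence polarization dose–response screen measuring inhibition of ASAP1; ASAP1 GAP domain stimulating GTP hydrolysis by truncated human ARF1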
[14] = biological target: T4, RNA-binding protein pos-1 (Caenorhabditis elegans, UniProt G5EF15); test: inhibitors of POS-1/mex-3 RNA binding, dose response, biochemical, fluorescence polarization (AID 1964);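 also: purified POS-1 fused to maltose binding protein made in E. coli; potency of compounds blocking POS-1 binding to fluorescent RNA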
T4 sequence (G5EF15 whole entry): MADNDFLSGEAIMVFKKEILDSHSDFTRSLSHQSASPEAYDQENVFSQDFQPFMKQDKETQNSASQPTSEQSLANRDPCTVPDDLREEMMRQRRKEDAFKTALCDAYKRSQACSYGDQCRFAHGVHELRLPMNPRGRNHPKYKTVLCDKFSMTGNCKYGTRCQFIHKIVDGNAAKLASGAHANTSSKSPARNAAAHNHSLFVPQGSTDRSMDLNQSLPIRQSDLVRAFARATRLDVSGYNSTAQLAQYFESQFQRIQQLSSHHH

[15] = biological target: T5, Zinc finger protein mex-5 (Caenorhabditis elegans, UniProt Q9XUB2); test: MEX-5/TCR-2 RNA interaction inhibitors, dose response, biochemical, C. elegans, fluorescence polarization (AID 1960)
T5 sequence (Q9XUB2 whole entry): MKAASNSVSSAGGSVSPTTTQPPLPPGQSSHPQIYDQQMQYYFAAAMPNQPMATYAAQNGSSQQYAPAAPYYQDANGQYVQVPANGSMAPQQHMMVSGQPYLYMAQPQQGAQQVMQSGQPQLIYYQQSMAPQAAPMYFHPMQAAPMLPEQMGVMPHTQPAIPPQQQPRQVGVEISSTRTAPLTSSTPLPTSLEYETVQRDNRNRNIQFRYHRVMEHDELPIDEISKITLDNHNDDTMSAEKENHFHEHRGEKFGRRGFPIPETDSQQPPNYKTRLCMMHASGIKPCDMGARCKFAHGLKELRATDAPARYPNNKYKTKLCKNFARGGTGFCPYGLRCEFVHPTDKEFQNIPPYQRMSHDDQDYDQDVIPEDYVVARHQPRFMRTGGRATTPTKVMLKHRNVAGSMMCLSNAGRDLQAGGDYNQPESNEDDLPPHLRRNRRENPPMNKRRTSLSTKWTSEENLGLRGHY

[16] = biological target: Ubiquitin carboxyl-terminal hydrolase BAP1 (Homo sapiens, UniProt Q92560); test: BAP1 deubiquitinase inhibitors, dose response, biochemical (AID 714); type: functional
[17] = biological target: T6, Mannose-6-phosphate isomerase (Homo sapiens, UniProt P34949); test: human PMI inhibitors, high substrate, primary screen, biochemical, fluorescence intensity, high mannose 6-phosphate (AID 1220)
T6 sequence (P34949 whole entry): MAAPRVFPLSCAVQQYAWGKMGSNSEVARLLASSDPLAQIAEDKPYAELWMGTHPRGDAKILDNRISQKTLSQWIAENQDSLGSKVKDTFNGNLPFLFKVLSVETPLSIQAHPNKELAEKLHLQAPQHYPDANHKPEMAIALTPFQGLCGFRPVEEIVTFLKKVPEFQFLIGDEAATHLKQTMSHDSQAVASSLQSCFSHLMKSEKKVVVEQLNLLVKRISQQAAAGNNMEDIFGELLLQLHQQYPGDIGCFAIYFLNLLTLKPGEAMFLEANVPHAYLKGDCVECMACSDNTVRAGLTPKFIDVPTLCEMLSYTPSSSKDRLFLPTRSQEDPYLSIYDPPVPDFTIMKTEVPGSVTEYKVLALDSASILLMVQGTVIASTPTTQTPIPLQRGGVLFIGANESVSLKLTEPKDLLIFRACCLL

[18] = biological target: Aryl hydrocarbon receptor (Homo sapiens, UniProt P35869); test: Luminescence-based cell-based high throughput dose response assay for activators of the Aryl Hydrocarbon Receptor (AHR). [Related pubchem assays: 2796 (Primary screen (AHR activators in singlicate)), 2845 (Confirmation screen (AHR activators in triplicate)), 434939 (Counterscreen (PXR activators in triplicate)), 2804 (Summary (AHR activators))]; type: ADME
Bcl-2-related protein A1 [19] = biological target: T7, Bcl-2-related protein A1 (Mus musculus, UniProt Q07440); test: Bfl-1 inhibitors blocking BH3 peptide binding, confirmation, biochemical, TR-FRET, mouse Bfl-1 (AID 621);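 also: TR-FRET binding of GST-Bfl-1 to FITC-labelled Bid peptide via terbium antibody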
T7 sequence (Q07440 whole entry): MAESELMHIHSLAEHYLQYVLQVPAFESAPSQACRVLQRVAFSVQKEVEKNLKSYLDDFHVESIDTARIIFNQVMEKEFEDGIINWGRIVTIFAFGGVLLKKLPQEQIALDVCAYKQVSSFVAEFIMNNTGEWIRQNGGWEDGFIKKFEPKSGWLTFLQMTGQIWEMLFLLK

Bcl-2-related protein A1 [20] = biological target: T7, Bcl-2-related protein A1; test: Bfl-1 binding inhibitors, SAR follow-up, biochemical, fluorescence polarization (AID 1070)
[21] = biological target: Glyceraldehyde-3-phosphate dehydrogenase (Homo sapiens, UniProt P04406)
Ephrin type-A receptor 4 = Ephrin type-A receptor 4 (Mus musculus, UniProt Q03137); test: inhibitors of EphA4 binding to KYL peptide, primary screen, biochemical, colorimetric, mouse EphA4 (AID 689); type: functional
Ephrin type-A receptor 4, sequence (Q03137 whole entry): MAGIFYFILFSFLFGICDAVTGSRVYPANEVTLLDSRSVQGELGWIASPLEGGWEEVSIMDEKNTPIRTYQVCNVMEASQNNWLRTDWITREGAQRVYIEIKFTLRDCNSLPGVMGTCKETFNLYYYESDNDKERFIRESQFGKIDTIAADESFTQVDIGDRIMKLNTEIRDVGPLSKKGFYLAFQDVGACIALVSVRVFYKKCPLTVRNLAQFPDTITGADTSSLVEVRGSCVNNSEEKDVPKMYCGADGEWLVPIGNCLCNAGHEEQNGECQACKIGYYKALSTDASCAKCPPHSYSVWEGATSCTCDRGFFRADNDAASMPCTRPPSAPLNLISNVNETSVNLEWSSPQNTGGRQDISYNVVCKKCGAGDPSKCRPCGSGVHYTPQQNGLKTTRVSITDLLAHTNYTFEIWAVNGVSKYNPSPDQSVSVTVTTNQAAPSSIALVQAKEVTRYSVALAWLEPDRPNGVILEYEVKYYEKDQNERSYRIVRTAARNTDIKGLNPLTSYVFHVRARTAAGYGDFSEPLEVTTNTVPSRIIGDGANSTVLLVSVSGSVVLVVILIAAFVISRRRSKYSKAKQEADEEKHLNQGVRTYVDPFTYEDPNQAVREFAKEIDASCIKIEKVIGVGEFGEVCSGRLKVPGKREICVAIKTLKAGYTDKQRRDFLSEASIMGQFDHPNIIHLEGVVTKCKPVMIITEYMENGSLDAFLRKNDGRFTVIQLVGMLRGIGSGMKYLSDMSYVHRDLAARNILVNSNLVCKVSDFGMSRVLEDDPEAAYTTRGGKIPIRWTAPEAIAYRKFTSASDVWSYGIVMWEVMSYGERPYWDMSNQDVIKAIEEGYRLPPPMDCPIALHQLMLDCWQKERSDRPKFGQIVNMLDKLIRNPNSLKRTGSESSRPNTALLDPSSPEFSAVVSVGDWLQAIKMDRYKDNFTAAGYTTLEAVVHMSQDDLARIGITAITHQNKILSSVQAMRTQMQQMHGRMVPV

T1 sequence (O95136 whole entry): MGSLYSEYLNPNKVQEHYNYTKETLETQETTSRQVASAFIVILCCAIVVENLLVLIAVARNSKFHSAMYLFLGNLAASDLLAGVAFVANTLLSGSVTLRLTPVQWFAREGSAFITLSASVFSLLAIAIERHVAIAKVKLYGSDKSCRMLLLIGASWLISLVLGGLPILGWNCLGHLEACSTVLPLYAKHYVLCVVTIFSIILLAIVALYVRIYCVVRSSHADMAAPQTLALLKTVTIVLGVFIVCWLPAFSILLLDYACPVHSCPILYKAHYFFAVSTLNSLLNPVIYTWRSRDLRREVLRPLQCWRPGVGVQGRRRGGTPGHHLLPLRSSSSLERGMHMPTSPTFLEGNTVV
Aryl hydrocarbon receptor, sequence (P35869 whole entry): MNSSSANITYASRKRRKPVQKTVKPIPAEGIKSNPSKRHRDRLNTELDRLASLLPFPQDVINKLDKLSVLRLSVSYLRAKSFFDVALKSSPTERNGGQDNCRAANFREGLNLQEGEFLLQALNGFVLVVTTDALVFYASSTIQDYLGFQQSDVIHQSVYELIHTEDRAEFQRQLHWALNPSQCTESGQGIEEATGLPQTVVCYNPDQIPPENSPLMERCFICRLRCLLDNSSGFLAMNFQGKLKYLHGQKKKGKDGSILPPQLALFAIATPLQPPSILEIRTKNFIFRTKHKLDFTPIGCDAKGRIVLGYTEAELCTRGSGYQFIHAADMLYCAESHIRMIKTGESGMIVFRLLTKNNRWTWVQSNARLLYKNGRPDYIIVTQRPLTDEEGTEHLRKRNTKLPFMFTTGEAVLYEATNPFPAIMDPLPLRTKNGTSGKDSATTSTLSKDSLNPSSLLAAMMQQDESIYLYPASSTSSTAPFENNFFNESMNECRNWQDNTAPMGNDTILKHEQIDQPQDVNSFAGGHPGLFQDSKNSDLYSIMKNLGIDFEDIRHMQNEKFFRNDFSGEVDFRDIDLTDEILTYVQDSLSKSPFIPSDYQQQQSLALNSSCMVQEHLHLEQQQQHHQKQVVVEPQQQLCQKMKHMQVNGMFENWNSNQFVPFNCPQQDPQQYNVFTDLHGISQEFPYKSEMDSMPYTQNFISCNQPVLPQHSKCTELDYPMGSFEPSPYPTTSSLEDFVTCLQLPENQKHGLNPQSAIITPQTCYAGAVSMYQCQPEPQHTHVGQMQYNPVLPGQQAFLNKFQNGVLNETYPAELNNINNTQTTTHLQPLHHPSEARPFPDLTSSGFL
Cytochrome P450 3A4, sequence (P08684 whole entry): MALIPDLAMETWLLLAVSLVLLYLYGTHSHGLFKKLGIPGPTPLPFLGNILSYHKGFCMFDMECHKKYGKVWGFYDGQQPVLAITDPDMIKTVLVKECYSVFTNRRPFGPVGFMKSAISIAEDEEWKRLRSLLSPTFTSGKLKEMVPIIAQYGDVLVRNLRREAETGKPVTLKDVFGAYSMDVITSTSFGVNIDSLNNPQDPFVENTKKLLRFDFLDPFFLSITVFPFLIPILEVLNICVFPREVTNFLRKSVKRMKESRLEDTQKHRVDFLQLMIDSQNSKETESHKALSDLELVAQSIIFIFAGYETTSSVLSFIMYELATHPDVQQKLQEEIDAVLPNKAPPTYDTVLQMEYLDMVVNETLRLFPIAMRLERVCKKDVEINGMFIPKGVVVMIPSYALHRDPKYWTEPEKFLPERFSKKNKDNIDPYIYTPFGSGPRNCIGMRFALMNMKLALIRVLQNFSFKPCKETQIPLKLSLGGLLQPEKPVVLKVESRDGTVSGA
Arf-GAP with SH3 domain, ANK repeat and PH domain-containing protein 1, sequence (Q9ULH1 whole entry, the tested form may be a part): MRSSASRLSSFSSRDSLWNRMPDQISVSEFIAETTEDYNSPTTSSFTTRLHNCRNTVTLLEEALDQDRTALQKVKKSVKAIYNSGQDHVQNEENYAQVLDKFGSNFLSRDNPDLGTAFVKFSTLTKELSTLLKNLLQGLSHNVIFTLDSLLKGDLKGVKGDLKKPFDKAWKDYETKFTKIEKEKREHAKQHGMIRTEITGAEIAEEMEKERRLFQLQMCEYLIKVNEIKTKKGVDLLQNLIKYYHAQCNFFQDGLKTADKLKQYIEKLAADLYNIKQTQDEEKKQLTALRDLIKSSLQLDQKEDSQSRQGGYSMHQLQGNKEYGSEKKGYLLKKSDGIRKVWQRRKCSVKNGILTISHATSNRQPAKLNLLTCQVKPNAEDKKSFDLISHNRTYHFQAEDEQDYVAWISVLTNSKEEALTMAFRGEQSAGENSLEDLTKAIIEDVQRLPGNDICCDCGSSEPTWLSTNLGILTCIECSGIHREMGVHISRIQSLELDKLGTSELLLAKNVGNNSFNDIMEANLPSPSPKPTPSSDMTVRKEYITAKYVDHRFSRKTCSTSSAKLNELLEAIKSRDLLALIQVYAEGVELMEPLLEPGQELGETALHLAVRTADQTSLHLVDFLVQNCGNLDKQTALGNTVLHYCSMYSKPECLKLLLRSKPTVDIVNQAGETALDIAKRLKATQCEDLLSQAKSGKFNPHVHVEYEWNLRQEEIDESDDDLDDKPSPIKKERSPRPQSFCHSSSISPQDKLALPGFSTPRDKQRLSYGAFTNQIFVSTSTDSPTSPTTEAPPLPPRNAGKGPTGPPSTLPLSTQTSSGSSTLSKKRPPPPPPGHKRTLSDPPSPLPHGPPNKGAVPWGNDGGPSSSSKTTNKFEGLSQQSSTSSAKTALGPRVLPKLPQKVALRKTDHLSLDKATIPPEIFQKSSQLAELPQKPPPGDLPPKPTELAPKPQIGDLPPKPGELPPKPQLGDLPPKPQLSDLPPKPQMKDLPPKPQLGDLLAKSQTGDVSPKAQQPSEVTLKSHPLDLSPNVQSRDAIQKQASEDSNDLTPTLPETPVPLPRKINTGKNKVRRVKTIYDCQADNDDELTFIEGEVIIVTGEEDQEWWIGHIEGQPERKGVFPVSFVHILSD
Protein-tyrosine kinase 2-beta, sequence (Q14289 whole entry, the tested form may be a part): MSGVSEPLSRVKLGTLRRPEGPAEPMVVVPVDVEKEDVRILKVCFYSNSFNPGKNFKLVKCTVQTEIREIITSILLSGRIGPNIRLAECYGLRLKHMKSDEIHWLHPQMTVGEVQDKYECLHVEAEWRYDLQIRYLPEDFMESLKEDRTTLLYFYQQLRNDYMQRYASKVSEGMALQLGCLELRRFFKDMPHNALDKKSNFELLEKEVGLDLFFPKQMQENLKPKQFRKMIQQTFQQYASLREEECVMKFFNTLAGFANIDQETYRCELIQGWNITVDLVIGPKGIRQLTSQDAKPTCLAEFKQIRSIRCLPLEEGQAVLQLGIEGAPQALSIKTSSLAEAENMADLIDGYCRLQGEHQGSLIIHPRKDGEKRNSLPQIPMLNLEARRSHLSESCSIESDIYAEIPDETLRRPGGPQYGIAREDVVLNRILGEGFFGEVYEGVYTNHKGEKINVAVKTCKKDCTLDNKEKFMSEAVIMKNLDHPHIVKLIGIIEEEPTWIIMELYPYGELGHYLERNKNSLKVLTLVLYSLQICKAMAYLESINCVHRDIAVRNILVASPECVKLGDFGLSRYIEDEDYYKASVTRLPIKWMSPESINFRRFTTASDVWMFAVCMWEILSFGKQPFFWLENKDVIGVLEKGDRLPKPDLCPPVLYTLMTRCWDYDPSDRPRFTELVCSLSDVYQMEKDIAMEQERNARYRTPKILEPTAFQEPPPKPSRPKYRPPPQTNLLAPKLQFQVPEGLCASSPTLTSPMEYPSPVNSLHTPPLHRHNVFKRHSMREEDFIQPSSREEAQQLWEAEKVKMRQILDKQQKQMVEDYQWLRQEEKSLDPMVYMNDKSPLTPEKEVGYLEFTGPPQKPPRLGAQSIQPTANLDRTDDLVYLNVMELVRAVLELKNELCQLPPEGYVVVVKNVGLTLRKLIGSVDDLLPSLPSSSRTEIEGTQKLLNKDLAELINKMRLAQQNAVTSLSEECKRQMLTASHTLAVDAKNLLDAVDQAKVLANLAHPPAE

Clc1ccc(-c2ccc(/C=N/Nc3cc(N4CCOCC4)nc(N4CCOCC4)n3)o2)cc1
EC50 [1]: 19.4 µM (active) | EC50 [2]: 10.8 µM (not active) | CC50 (Vero): 34.6 µM (active) | EC50 (Streptococcus): 17.1 µM (active) | EC50 (Streptokinase A): > 150 µM (not active) | AC50 [3]: 1.73 µM (active)

C=C/C1=C/Cc2ccccc2C(C[N+](=O)[O-])C(C(=O)OC)(C(=O)OC)C1 (centres undefined)
AC50 (Cytochrome P450 2C19): 7.94 µM (inconclusive) | AC50 (Cytochrome P450 3A4): 3.16 µM (inconclusive)

CC(=O)Nc1cc(OC(C)=O)c2nonc2c1OC(C)=O
CC50 (Vero): 12.6 µM (active) | IC50 [4]: > 80 µM (inactive) | EC50 [5]: 5.65 µM (active) | IC50 [6]: 6.21 µM (active) | EC50 [7]: 6.32 µM (active) | IC50 (Genome polyprotein): 38 µM (active) | IC50 [8]: 46.6 µM (not active) | AC50 [9]: 4.89 µM (active)

CN(C(=O)COC(=O)/C=C/c1ccc(Cl)c(Cl)c1)c1c(N)n(Cc2ccccc2)c(=O)[nH]c1=O
IC50 [10]: > 100 µM (active)

O=C(N/N=C/C=C/c1ccc([N+](=O)[O-])cc1)c1cccs1
IC50 [11]: 4.28 µM (active) | IC50 [12]: 6.61 µM (active) | IC50 [13]: 20.7 µM (inactive) | EC50 [14]: > 300 µM (not active) | EC50 [15]: 53.6 µM (active)

N#Cc1c(NC(=O)CCN2C(=O)c3ccccc3C2=O)oc(-c2ccccc2)c1-c1ccccc1
IC50 [16]: > 50 µM (not active)

COc1ccc(C(=O)CNc2ccc3ccccc3c2)cc1
IC50 [17]: > 50 µM (not active)

COc1ccc(NC(=O)c2ccc(C)cc2)c(OC)c1
EC50 [18]: 3.78 µM (active)

COC(=O)c1cc(C)nc(S(C)(=O)=O)n1
IC50 (Bcl-2-related protein A1 [19]): > 100 µM (not active) | IC50 (Bcl-2-related protein A1 [20]): > 100 µM (not active) | IC50 [21]: > 100 µM (not active)

COc1ccc(C(=O)CN2CCOCC2)cc1F
IC50 (Ephrin type-A receptor 4): > 100 µM (not active)
